# Source: patent US20100227853A1, “INHIBITORS OF CYCLIC AMP PHOSPHODIESTERASES” (Trustees of Boston College, priority 2008, published 2010)
# Assays:
# [1] = target: T1, PDE4A1 (Mus musculus, UniProt O89084); test: 5FOA growth assay (high throughput screen, ED50) in fission yeast strain expressing PDE4A1; assay type: cell-based; conditions: for Composite Z score, PDE4A1: high throughput 5FOA growth screen, greater than 8.53 = statistically-significant inhibitor; for 1 Assay (20 uM) 4A1: PDE 4A1
# T1 construct: targets used in the assays are full-length proteins (as opposed to simply the catalytic domain); expressed in transfected cells; host or cells: Schizosaccharomyces pombe, PDE gene integrated in place of cgs2
# T1 sequence (O89084 1-610 isoform O89084-2): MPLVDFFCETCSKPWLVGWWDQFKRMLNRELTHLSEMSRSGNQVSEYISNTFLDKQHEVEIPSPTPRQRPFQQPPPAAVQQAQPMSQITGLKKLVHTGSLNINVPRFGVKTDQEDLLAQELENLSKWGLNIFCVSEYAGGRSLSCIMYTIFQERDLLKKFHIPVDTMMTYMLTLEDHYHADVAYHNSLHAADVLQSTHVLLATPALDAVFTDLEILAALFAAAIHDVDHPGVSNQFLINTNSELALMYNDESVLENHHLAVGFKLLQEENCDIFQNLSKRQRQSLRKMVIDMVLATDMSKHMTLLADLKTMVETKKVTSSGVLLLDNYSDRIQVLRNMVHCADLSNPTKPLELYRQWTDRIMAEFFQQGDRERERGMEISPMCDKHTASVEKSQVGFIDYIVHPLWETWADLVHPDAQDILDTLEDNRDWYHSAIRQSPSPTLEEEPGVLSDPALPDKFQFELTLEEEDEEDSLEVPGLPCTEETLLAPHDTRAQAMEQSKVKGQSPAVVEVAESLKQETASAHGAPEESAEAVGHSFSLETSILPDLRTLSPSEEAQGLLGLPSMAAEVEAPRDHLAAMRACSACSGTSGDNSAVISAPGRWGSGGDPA
# How it was run: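 Readout is OD600 after 48 h at 30° C in 5FOA medium, starting from 0.5–4×10^5 cells/ml; 5 mM cAMP served as positive control. Yeast expressing mouse PDE4A1 or PDE4B3 with an fbp1-ura4 reporter was first grown to exponential phase in EMM plus 0.5–2.5 mM cAMP. Hits were scored by composite Z scores.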
# [2] = target: PDE7A (Homo sapiens, UniProt Q13946); test: 5FOA growth assay in fission yeast strain expressing PDE7A; assay type: cell-based; parameters: targets used in the assays are full-length proteins (as opposed to simply the catalytic domain); expressed in transfected cells; host or cells: Schizosaccharomyces pombe, PDE gene integrated in place of cgs2; conditions: for Composite Z score, PDE7A: high throughput 5FOA growth screen; for 1 Assay (20 uM) 7A: PDE 7A
# How it was run: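 Growth stimulation, reported as composite Z scores, was read as OD600 after 48 h at 30 °C in 5FOA medium. Before this, reporter (fbp1-ura4) yeast were grown at 30 °C in EMM with 0–2.5 mM cAMP or 0.5/1.0 mM cGMP to repress the reporter, then exposed to 100 nl pinned compound (stocks generally 10 mM).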
# PDE7A, sequence (Q13946 whole entry, the tested form may be a part): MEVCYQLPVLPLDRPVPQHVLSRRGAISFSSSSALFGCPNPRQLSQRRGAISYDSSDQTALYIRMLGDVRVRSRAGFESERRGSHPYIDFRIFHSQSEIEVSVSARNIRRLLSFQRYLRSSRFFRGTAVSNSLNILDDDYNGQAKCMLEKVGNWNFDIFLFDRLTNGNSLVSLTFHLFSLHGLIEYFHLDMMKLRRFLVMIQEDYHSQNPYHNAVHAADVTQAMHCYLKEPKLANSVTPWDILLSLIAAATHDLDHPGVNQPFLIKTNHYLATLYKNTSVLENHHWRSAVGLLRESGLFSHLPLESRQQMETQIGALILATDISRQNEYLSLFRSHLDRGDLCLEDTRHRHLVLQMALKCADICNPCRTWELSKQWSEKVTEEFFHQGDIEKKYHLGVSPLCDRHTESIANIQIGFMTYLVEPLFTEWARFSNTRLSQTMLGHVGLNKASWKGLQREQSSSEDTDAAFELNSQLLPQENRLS
"Composite Z score, PDE4A1 [1]","Composite Z score, PDE7A [2]",1 Assay (20 uM) 4A1 [1] [ND ND ND ND],1 Assay (20 uM) 7A [2] [ND ND ND ND],SMILES
−0.307,0.1836,–,–,CCNc1nc(SCC(=O)NC(=O)NCc2ccccc2)nc2sc3c(c12)CCN(C)C3 [Compound 2054N05]
0.2744,−0.933,–,–,Cc1c(C(=O)N2CCCCCC2)sc2ncnc(N3CCN(c4ccccc4)CC3)c12 [Compound 2041I21]
7.3705,−1.037,–,–,CCN(CC)c1nc(C)nc2sc(C(=O)N3CCCCCC3)c(C)c12 [Compound 2040N12]
2.8,1.8846,–,–,O=C(O)CCNc1ncnc2sc3c(c12)CCCC3 [Compound 2012O16]

# The next lines start with the compound.
SMILES,"Composite Z score, PDE4A1 [1]","Composite Z score, PDE7A [2]",1 Assay (20 uM) 4A1 [1] [ND ND ND ND],1 Assay (20 uM) 7A [2] [ND ND ND ND]
"C=CCn1c2ccc(Br)cc2c2nc3ccccc3nc21 [2017, C18]",–,–,49.17,−1.58
COc1ccccc1CNC(=O)c1sc2ncnc(N3CCN(c4ccccc4F)CC3)c2c1C [2041 E21],1.9156,0.5923,–,–
"C=Cn1c2ccccc2c2nc3ccccc3nc21 [2033, H06]",–,–,29.62,0.63
